For 8 molecules, mutagenic call results are on record in PubChem BioAssay AID1259407 (Chemical Carcinogenesis Research Information System (CCRIS), 2018).

The source made the active and inactive calls. The rule behind the calls is not given here.

The subject of this data set is CCRIS mutagenicity, Ames/micronucleus/aberration tests. Nature of the data set: CCRIS mutagenicity studies.
Setting [1] is: Test System: AMES SALMONELLA TYPHIMURIUM, Strain/Indicator: TA98, Metabolic Activation: NONE, Method: STANDARD PLATE.
The mark [2] stands for this setting: Test System: AMES SALMONELLA TYPHIMURIUM, Strain/Indicator: TA100, Metabolic Activation: NONE, Method: STANDARD PLATE.
The mark [3] stands for this setting: Test System: AMES SALMONELLA TYPHIMURIUM, Strain/Indicator: TA100, Metabolic Activation: NONE, Method: PREINCUBATION

Turning to `C[C@]12CC[C@H](O)CC1=CC[C@@H]1[C@@H]2CC[C@]2(C)C(=O)CC[C@@H]12`, the mutagenic call is, setting by setting: (Test System: AMES SALMONELLA TYPHIMURIUM, Strain/Indicator: TA102, Metabolic Activation: RAT LIVER S-9, PHENOBARBITAL AND 5,6-BENZOFLAVONE, Method: STANDARD PLATE) “inactive; negative”; (Test System: AMES SALMONELLA TYPHIMURIUM, Strain/Indicator: TA2638, Metabolic Activation: RAT LIVER S-9, PHENOBARBITAL AND 5,6-BENZOFLAVONE, Method: STANDARD PLATE) “inactive; negative”; (Test System: E. COLI, Strain/Indicator: WP2 (PKM101), Metabolic Activation: RAT LIVER S-9, PHENOBARBITAL AND 5,6-BENZOFLAVONE, Method: STANDARD PLATE) “inactive; negative”; (Test System: E. COLI, Strain/Indicator: WP2 UVRA (PKM101), Metabolic Activation: RAT LIVER S-9, PHENOBARBITAL AND 5,6-BENZOFLAVONE, Method: STANDARD PLATE) “inactive; negative”; (Test System: UDS RAT HEPATOCYTES, Strain/Indicator: THY INCORP (18-20 HR), Metabolic Activation: NONE, Method: LIQUID SCINTILLATION COUNTING) “inactive; negative”.
Consider `c1cc2ccc3ccc4ccc5cccc6c(c1)c2c3c4c56`, for which the mutagenic call was “inactive; negative” (Test System: AMES SALMONELLA TYPHIMURIUM, Strain/Indicator: TA97, Metabolic Activation: NONE, Method: STANDARD PLATE); “active; positive” (Test System: AMES SALMONELLA TYPHIMURIUM, Strain/Indicator: TA97, Metabolic Activation: RAT, LIVER, S-9, PCB, Method: STANDARD PLATE); “inactive; negative” under setting [1]; “active; positive” (Test System: AMES SALMONELLA TYPHIMURIUM, Strain/Indicator: TA98, Metabolic Activation: RAT, LIVER, S-9, AROCLOR 1254, Method: FLUCTUATION); “active; positive” (Test System: AMES SALMONELLA TYPHIMURIUM, Strain/Indicator: TA98, Metabolic Activation: RAT, LIVER, S-9, AROCLOR 1254, Method: STANDARD PLATE); “active; positive” (Test System: AMES SALMONELLA TYPHIMURIUM, Strain/Indicator: TA98, Metabolic Activation: RAT, LIVER, S-9, PCB, Method: STANDARD PLATE). The mutagenic call is, setting by setting: under setting [2], “inactive; negative”; (Test System: AMES SALMONELLA TYPHIMURIUM, Strain/Indicator: TA100, Metabolic Activation: RAT, LIVER, S-9, AROCLOR 1254, Method: STANDARD PLATE) “active; positive”; (Test System: AMES SALMONELLA TYPHIMURIUM, Strain/Indicator: TA100, Metabolic Activation: RAT, LIVER, S-9, PCB, Method: STANDARD PLATE) “inactive; negative”; (Test System: AMES SALMONELLA TYPHIMURIUM, Strain/Indicator: TA1537, Metabolic Activation: RAT, LIVER, S-9, AROCLOR 1254, Method: STANDARD PLATE) “active; positive”; (Test System: AMES SALMONELLA TYPHIMURIUM, Strain/Indicator: TA1538, Metabolic Activation: RAT, LIVER, S-9, AROCLOR 1254, Method: FLUCTUATION) “active; positive”; (Test System: AMES SALMONELLA TYPHIMURIUM, Strain/Indicator: TA1538, Metabolic Activation: RAT, LIVER, S-9, AROCLOR 1254, Method: STANDARD PLATE) “active; positive”. Further, the mutagenic call (Test System: AMES SALMONELLA TYPHIMURIUM, Strain/Indicator: TA1538, Metabolic Activation: RAT, LIVER, S-9, PHENOBARBITAL, Method: STANDARD PLATE) was “active; positive”.
Regarding `C#CC1(O)CC[C@H]2[C@@H]3CCC4=CCCC[C@@H]4[C@H]3CC[C@@]21C` (stereo partly specified), the mutagenic call (End Point: IN VIVO CHROMOSOMAL ABERRATIONS, Test System: BONE MARROW CELLS, Species: MOUSE, Strain/Sex: SWISS ALBINO/FEMALE, Route: IP INJECTION) was “active; positive (structural changes)”.
For `CC(=O)[C@]1(C)O[C@@]12C=Cc1ccccc1C2=O`, under setting [3], the mutagenic call is “inactive; negative”.
For `O=C(/C=C/c1ccccc1O)c1ccc(O)cc1O`, the mutagenic call was “inactive; negative” (Test System: Ames Salmonella typhimurium, Strain/Indicator: TA102, Metabolic Activation: None, Method: Preincubation) and “inactive; negative” (Test System: Ames Salmonella typhimurium, Strain/Indicator: TA102, Metabolic Activation: Rat, Liver, S-9, Aroclor 1254 in 0.154 M KCl, Method: Preincubation).
`O=[N+]([O-])c1cc2c3c(cccc3c1)-c1ccccc1-2`: the mutagenic call (Test System: AMES SALMONELLA TYPHIMURIUM, Strain/Indicator: TA98(1,8-DNP6), Metabolic Activation: NONE, Method: STANDARD PLATE) is “inactive; negative”; the mutagenic call (Test System: AMES SALMONELLA TYPHIMURIUM, Strain/Indicator: TA98(NR), Metabolic Activation: NONE, Method: STANDARD PLATE) was “inactive; negative”; the mutagenic call under setting [1] is “active; positive”; the mutagenic call (Test System: AMES SALMONELLA TYPHIMURIUM, Strain/Indicator: TA7001, Metabolic Activation: NONE, Method: PREINCUBATION) was “inactive; negative”; the mutagenic call (Test System: AMES SALMONELLA TYPHIMURIUM, Strain/Indicator: TA7002, Metabolic Activation: NONE, Method: PREINCUBATION) was “active; positive”; the mutagenic call (Test System: AMES SALMONELLA TYPHIMURIUM, Strain/Indicator: TA7003, Metabolic Activation: NONE, Method: PREINCUBATION) was “inactive; negative”. Besides, the mutagenic call (Test System: AMES SALMONELLA TYPHIMURIUM, Strain/Indicator: TA7004, Metabolic Activation: NONE, Method: PREINCUBATION) was “active; positive”; the mutagenic call (Test System: AMES SALMONELLA TYPHIMURIUM, Strain/Indicator: TA7005, Metabolic Activation: NONE, Method: PREINCUBATION) was “active; positive”; the mutagenic call (Test System: AMES SALMONELLA TYPHIMURIUM, Strain/Indicator: TA7006, Metabolic Activation: NONE, Method: PREINCUBATION) is “active; positive”.
In the case of `O=NN(c1ccc([N+](=O)[O-])cc1)C1OC[C@@H](O)[C@@H](O)[C@H]1O` (stereo partly specified), under setting [2], the mutagenic call is “active; positive”.
On to `CCOc1ccccc1N`, for which the mutagenic call is, setting by setting: (Test System: AMES SALMONELLA TYPHIMURIUM, Strain/Indicator: TA97, Metabolic Activation: HAMSTER, LIVER, S-9, AROCLOR 1254 (10 OR 30%), Method: PREINCUBATION) “inactive; negative”; (Test System: AMES SALMONELLA TYPHIMURIUM, Strain/Indicator: TA97, Metabolic Activation: NONE, Method: PREINCUBATION) “inactive; negative”; (Test System: AMES SALMONELLA TYPHIMURIUM, Strain/Indicator: TA97, Metabolic Activation: RAT, LIVER, S-9, AROCLOR 1254 (10 OR 30%), Method: PREINCUBATION) “inactive; negative”; (Test System: AMES SALMONELLA TYPHIMURIUM, Strain/Indicator: TA98, Metabolic Activation: HAMSTER, LIVER, S-9, AROCLOR 1254 (10 OR 30%), Method: PREINCUBATION) “inactive; negative”; (Test System: AMES SALMONELLA TYPHIMURIUM, Strain/Indicator: TA98, Metabolic Activation: NONE, Method: PREINCUBATION) “inactive; negative”; (Test System: AMES SALMONELLA TYPHIMURIUM, Strain/Indicator: TA98, Metabolic Activation: RAT, LIVER, S-9, AROCLOR 1254 (10 OR 30%), Method: PREINCUBATION) “inactive; negative”. The mutagenic call is, setting by setting: (Test System: AMES SALMONELLA TYPHIMURIUM, Strain/Indicator: TA100, Metabolic Activation: HAMSTER, LIVER, S-9, AROCLOR 1254 (10%), Method: PREINCUBATION) “inactive; negative”; (Test System: AMES SALMONELLA TYPHIMURIUM, Strain/Indicator: TA100, Metabolic Activation: HAMSTER, LIVER, S-9, AROCLOR 1254 (30%), Method: PREINCUBATION) “inactive; negative”; under setting [3], “inactive; negative”; (Test System: AMES SALMONELLA TYPHIMURIUM, Strain/Indicator: TA100, Metabolic Activation: RAT, LIVER, S-9, AROCLOR 1254 (10%), Method: PREINCUBATION) “inactive; negative”; (Test System: AMES SALMONELLA TYPHIMURIUM, Strain/Indicator: TA100, Metabolic Activation: RAT, LIVER, S-9, AROCLOR 1254 (30%), Method: PREINCUBATION) “inactive; negative”; (Test System: AMES SALMONELLA TYPHIMURIUM, Strain/Indicator: TA1535, Metabolic Activation: HAMSTER, LIVER, S-9, AROCLOR 1254 (10 OR 30%), Method: PREINCUBATION) “inactive; negative”. For the same molecule, the mutagenic call (Test System: AMES SALMONELLA TYPHIMURIUM, Strain/Indicator: TA1535, Metabolic Activation: NONE, Method: PREINCUBATION) is “inactive; negative” and the mutagenic call (Test System: AMES SALMONELLA TYPHIMURIUM, Strain/Indicator: TA1535, Metabolic Activation: RAT, LIVER, S-9, AROCLOR 1254 (10 OR 30%), Method: PREINCUBATION) was “inactive; negative”.
